From ChEMBL document CHEMBL4043117, “Potential peptidic proteasome inhibitors by incorporation of an electrophilic trap based on amino acid derived α-substituted sulfonyl fluorides” (Bioorg Med Chem, 2017)
The source made the active and inactive calls. No cut-off for these calls is given here.

Columns and labels:
[1] = species: Homo sapiens; assay: Inhibition of human erythrocyte 20S proteasome at 0.002 to 400 uM using Suc-LLVY-AMC substrate incubated for 1 hr by fluorescence assay
[2] = Stability in PBS buffer at pH 7.4 assessed as half life for compound hydrolysis by HPLC method; format: physicochemical
[3] = Stability in PBS buffer at pH 6.5 assessed as half life for compound hydrolysis by HPLC method; format: physicochemical
[4] = Stability in PBS buffer at pH 8 assessed as half life for compound hydrolysis by HPLC method; format: physicochemical
[5] = species: Homo sapiens; assay: Inhibition of human erythrocyte 20S proteasome at 0.002 to 400 uM using compounds dissolved in 20% v/v DMSO in presence of Suc-LLVY-AMC substrate incubated for 1 hr by fluorescence assay

Compound: CC(C)C[C@@H](CS(=O)(=O)F)NC(=O)[C@H](CC(C)C)NC(=O)[C@H](CC(C)C)NC(=O)[C@H](CC(C)C)NC(=O)OCc1ccccc1
- inhibition [1]: Active
- half-life [2]: 10 to 12 h
- half-life [3]: 10 to 12 h
- half-life [4]: 10 to 12 h

Compound: CC(C)C[C@@H](CNC(=O)[C@H](Cc1ccccc1)NC(=O)[C@H](CC(C)C)NC(=O)[C@H](CCc1ccccc1)NC(=O)CN1CCOCC1)S(=O)(=O)F
- inhibition [1]: inactive
- inhibition [5]: inactive

Compound: CC(C)C[C@H](NC(=O)OCc1ccccc1)C(=O)N[C@@H](CC(C)C)C(=O)NC[C@H](Cc1ccccc1)S(=O)(=O)F
- inhibition [1]: inactive
- inhibition [5]: inactive

Compound: CC(C)C[C@H](NC(=O)[C@H](CCc1ccccc1)NC(=O)CN1CCOCC1)C(=O)N[C@@H](Cc1ccccc1)C(=O)NC[C@H](Cc1ccccc1)S(=O)(=O)F
- inhibition [1]: inactive
- inhibition [5]: inactive

Compound: CC(C)C[C@@H](CNC(=O)[C@H](CC(C)C)NC(=O)[C@H](CC(C)C)NC(=O)OCc1ccccc1)S(=O)(=O)F
- inhibition [1]: inactive
- inhibition [5]: inactive
- half-life [2]: 5 to 7 h
- half-life [3]: 5 to 7 h
- half-life [4]: 5 to 7 h

Compound: CC(C)C[C@H](NC(=O)OCc1ccccc1)C(=O)N[C@@H](CC(C)C)C(=O)N[C@@H](CC(C)C)C(=O)NC[C@H](Cc1ccccc1)S(=O)(=O)F
- inhibition [1]: inactive
- inhibition [5]: inactive

Compound: CC(C)C[C@@H](CNC(=O)[C@H](CC(C)C)NC(=O)[C@H](CC(C)C)NC(=O)[C@H](CC(C)C)NC(=O)OCc1ccccc1)S(=O)(=O)F
- inhibition [1]: inactive
- inhibition [5]: inactive
- half-life [2]: 5 to 7 h
- half-life [3]: 5 to 7 h
- half-life [4]: 5 to 7 h

Compound: CC(C)C[C@@H](CS(=O)(=O)F)NC(=O)[C@H](CC(C)C)NC(=O)[C@H](CC(C)C)NC(=O)OCc1ccccc1
- inhibition [1]: Active
- half-life [2]: 10 to 12 h
- half-life [3]: 10 to 12 h
- half-life [4]: 10 to 12 h
